Assay results as given in PubChem BioAssay AID248 (DTP/NCI, 2004).
Values joined by “and” are separate entries in the source; they are usually repeats but may differ in a detail not shown here. Equal entries are not always repeated. Toxic doses and inconclusive results are not listed. Cut-off read from the data, not from the text of the source: active = T/C of 150% or more; inactive = T/C below 125%.

System: L1210 leukemia ip in BDF1 mice, survival T/C
Assay: NCI In Vivo Anticancer Drug Screen. Data for tumor model L1210 Leukemia (intraperitoneal) in B6D2F1 (BDF1) mice
Details: endpoint: mean survival time, higher = longer survival
Method in brief: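 Read-out is survival time, reported as the treated-group measurement over the vehicle-control measurement.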

[1] = dose: 100.0 mg/kg/injection, schedule: Q01DX009 (ip), vehicle: saline with Tween-80
[2] = dose: 200.0 mg/kg/injection, schedule: Q01DX009 (ip), vehicle: saline with Tween-80
[3] = dose: 400.0 mg/kg/injection, schedule: Q01DX009 (ip), vehicle: saline with Tween-80
[4] = dose: 100.0 mg/kg/injection, schedule: Q01DX001 (ip), vehicle: Klucel (hydroxypropylcellulose) (HPC)
[5] = dose: 50.0 mg/kg/injection, schedule: Q01DX001 (ip), vehicle: carboxymethylcellulose (CMC)
[6] = dose: 100.0 mg/kg/injection, schedule: Q01DX001 (ip), vehicle: carboxymethylcellulose (CMC)
[7] = dose: 200.0 mg/kg/injection, schedule: Q01DX001 (ip), vehicle: carboxymethylcellulose (CMC)
[8] = dose: 400.0 mg/kg/injection, schedule: Q01DX001 (ip), vehicle: carboxymethylcellulose (CMC)
[9] = dose: 100.0 mg/kg/injection, schedule: Q01DX009 (ip), vehicle: saline
[10] = dose: 200.0 mg/kg/injection, schedule: Q01DX009 (ip), vehicle: saline
[11] = dose: 400.0 mg/kg/injection, schedule: Q01DX009 (ip), vehicle: saline
[12] = dose: 100.0 mg/kg/injection, schedule: Q01DX009 (ip), vehicle: Klucel (hydroxypropylcellulose) (HPC)
[13] = dose: 200.0 mg/kg/injection, schedule: Q01DX009 (ip), vehicle: Klucel (hydroxypropylcellulose) (HPC)
[14] = dose: 400.0 mg/kg/injection, schedule: Q01DX009 (ip), vehicle: Klucel (hydroxypropylcellulose) (HPC)
[15] = dose: 75.0 mg/kg/injection, schedule: Q01DX001 (ip), vehicle: saline
[16] = dose: 150.0 mg/kg/injection, schedule: Q01DX001 (ip), vehicle: saline

Measured: T/C

CC(=O)Oc1cccc2c1C(=O)OC2=O
inactive: dose: 100.0 mg/kg/injection, schedule: Q01DX001 (ip), vehicle: saline with Tween-80 89 % of control | dose: 200.0 mg/kg/injection, schedule: Q01DX001 (ip), vehicle: saline with Tween-80 108 % of control

CCCCCOc1cc(C(C)=O)cc(OC)c1OC(=O)c1cc([N+](=O)[O-])cc([N+](=O)[O-])c1
inactive: [1] 94 % of control | [2] 94 % of control | [3] 102 % of control

CCCCCCCCSC(=O)N(C(C)C)C(C)C
inactive: dose: 50.0 mg/kg/injection, schedule: Q04DX002 (ip), vehicle: saline 100 % of control | dose: 100.0 mg/kg/injection, schedule: Q04DX002 (ip), vehicle: saline 100 % of control and 105 % of control | dose: 200.0 mg/kg/injection, schedule: Q04DX002 (ip), vehicle: saline 100 % of control | dose: 400.0 mg/kg/injection, schedule: Q04DX002 (ip), vehicle: saline 108 % of control and 86 % of control

CC(=O)OC(C)C(=O)Nc1ccccc1 (configuration not stated)
inactive: [4] 93 % of control | dose: 200.0 mg/kg/injection, schedule: Q01DX001 (ip), vehicle: Klucel (hydroxypropylcellulose) (HPC) 89 % of control | dose: 400.0 mg/kg/injection, schedule: Q01DX001 (ip), vehicle: Klucel (hydroxypropylcellulose) (HPC) 96 % of control

Cc1ccc(S(=O)(=O)Nc2ccccc2-c2nc3cc(Cl)ccc3c(=O)o2)cc1
inactive: [1] 86 % of control | [2] 87 % of control | [3] 89 % of control

C[n+]1c(-c2ccc(Cl)c(Cl)c2)c2cc(N)ccc2c2ccccc21
inactive: dose: 3.12 mg/kg/injection, schedule: Q01DX009 (ip), vehicle: water 102 % of control | dose: 6.25 mg/kg/injection, schedule: Q01DX009 (ip), vehicle: water 110 % of control | dose: 12.5 mg/kg/injection, schedule: Q01DX009 (ip), vehicle: water 104 % of control | dose: 12.5 mg/kg/injection, schedule: Q04DX003 (ip), vehicle: water 105 % of control | dose: 25.0 mg/kg/injection, schedule: Q04DX003 (ip), vehicle: water 93 % of control

Cc1nc2ccc(N(C)C)cc2c2c1Cc1c(C)nc3ccc(N(C)C)cc3c1O2
inactive: [1] 95 % of control | [2] 92 % of control | [3] 110 % of control

O=C1NCC(c2ccccc2)(c2ccccc2)C(=O)N1
inactive: [5] 94 % of control | [6] 94 % of control | [7] 91 % of control | [8] 86 % of control

O=C(c1ccccc1)c1cc(=O)[nH]c(=O)[nH]1
inactive: dose: 47.5 mg/kg/injection, schedule: Q01DX001 (ip), vehicle: Klucel (hydroxypropylcellulose) (HPC) 100 % of control | dose: 95.0 mg/kg/injection, schedule: Q01DX001 (ip), vehicle: Klucel (hydroxypropylcellulose) (HPC) 102 % of control | dose: 190.0 mg/kg/injection, schedule: Q01DX001 (ip), vehicle: Klucel (hydroxypropylcellulose) (HPC) 98 % of control

CCOC(=O)/C=C(/C)C#N
inactive: [6] 103 % of control | [7] 97 % of control | [8] 98 % of control

COc1ccc(/C=C/C(=O)O)cc1
inactive: [1] 100 % of control | dose: 100.0 mg/kg/injection, schedule: Q04DX002 (ip), vehicle: saline with Tween-80 88 % of control | [2] 107 % of control | dose: 200.0 mg/kg/injection, schedule: Q04DX002 (ip), vehicle: saline with Tween-80 98 % of control | [3] 97 % of control | dose: 400.0 mg/kg/injection, schedule: Q04DX002 (ip), vehicle: saline with Tween-80 88 % of control

O=C/C=C/c1cccnc1
inactive: dose: 25.0 mg/kg/injection, schedule: Q01DX009 (ip), vehicle: saline with Tween-80 92 % of control | dose: 50.0 mg/kg/injection, schedule: Q01DX009 (ip), vehicle: saline with Tween-80 100 % of control | [1] 101 % of control | [2] 99 % of control

c1ccc(C2CCCCCC2)cc1
inactive: [9] 104 % of control | [10] 95 % of control | [11] 90 % of control

CCOc1ccc(Br)cc1/C=N\NC(=O)c1ccccc1N(C)C
inactive: dose: 100.0 mg/kg/injection, schedule: Q04DX002 (ip), vehicle: gum acacia 90 % of control | dose: 200.0 mg/kg/injection, schedule: Q04DX002 (ip), vehicle: gum acacia 100 % of control | dose: 400.0 mg/kg/injection, schedule: Q04DX002 (ip), vehicle: gum acacia 90 % of control

CCCCNS(=O)(=O)c1ccc(OC)c(N)c1
inactive: [12] 98 % of control | [13] 104 % of control | [14] 97 % of control

O=C(Nc1ncccn1)Nc1ccccc1C(F)(F)F
inactive: dose: 100.0 mg/kg/injection, schedule: Q01DX009 (ip), vehicle: gum acacia 88 % of control | dose: 200.0 mg/kg/injection, schedule: Q01DX009 (ip), vehicle: gum acacia 86 % of control | dose: 400.0 mg/kg/injection, schedule: Q01DX009 (ip), vehicle: gum acacia 88 % of control

Cc1cn(C2CC(OS(C)(=O)=O)C(COC(c3ccccc3)(c3ccccc3)c3ccccc3)O2)c(=O)[nH]c1=O (configuration not stated)
inactive: dose: 100.0 mg/kg/injection, schedule: Q01DX005 (ip), vehicle: saline 104 % of control | dose: 200.0 mg/kg/injection, schedule: Q01DX005 (ip), vehicle: saline 96 % of control

CC1(c2ccccc2)CCc2ccccc21 (configuration not stated)
inactive: dose: 100.0 mg/kg/injection, schedule: Q04DX003 (ip), vehicle: saline with Tween-80 100 % of control | dose: 200.0 mg/kg/injection, schedule: Q04DX003 (ip), vehicle: saline with Tween-80 98 % of control | dose: 400.0 mg/kg/injection, schedule: Q04DX003 (ip), vehicle: saline with Tween-80 98 % of control

COc1ccc(C(O)C(C)N)cc1 (configuration not stated)
inactive: [15] 96 % of control | [16] 96 % of control

Cc1ccc(NC(=O)Oc2ccc(-c3ccccc3)cc2)cc1
inactive: [12] 107 % of control | [13] 100 % of control | [14] 92 % of control

CC(C(=O)O)S(=O)(=O)Cc1ccccc1 (configuration not stated)
inactive: dose: 100.0 mg/kg/injection, schedule: Q01DX001 (ip), vehicle: saline 94 % of control | dose: 200.0 mg/kg/injection, schedule: Q01DX001 (ip), vehicle: saline 97 % of control | dose: 400.0 mg/kg/injection, schedule: Q01DX001 (ip), vehicle: saline 100 % of control

CCCCN(C)/N=N/c1nc[nH]c1C(=O)NN
inactive: [5] 104 % of control | [6] 104 % of control | [7] 101 % of control | [8] 119 % of control

CCOC(=O)C1(C)OCCO1
inactive: [9] 101 % of control | dose: 100.0 mg/kg/injection, schedule: Q04DX003 (ip), vehicle: saline 103 % of control | [10] 100 % of control | dose: 200.0 mg/kg/injection, schedule: Q04DX003 (ip), vehicle: saline 96 % of control | [11] 95 % of control | dose: 400.0 mg/kg/injection, schedule: Q04DX003 (ip), vehicle: saline 99 % of control

COC1=NS(=O)(=O)C2CCCCCCC2O1 (configuration not stated)
inactive: dose: 25.0 mg/kg/injection, schedule: Q01DX001 (ip), vehicle: Klucel (hydroxypropylcellulose) (HPC) 102 % of control | dose: 25.0 mg/kg/injection, schedule: Q04DX003 (ip), vehicle: Klucel (hydroxypropylcellulose) (HPC) 92 % of control | dose: 50.0 mg/kg/injection, schedule: Q01DX001 (ip), vehicle: Klucel (hydroxypropylcellulose) (HPC) 94 % of control | dose: 50.0 mg/kg/injection, schedule: Q04DX003 (ip), vehicle: Klucel (hydroxypropylcellulose) (HPC) 95 % of control | [4] 94 % of control | dose: 100.0 mg/kg/injection, schedule: Q04DX003 (ip), vehicle: Klucel (hydroxypropylcellulose) (HPC) 95 % of control

CCNC(C)(C)C(SSS)c1ccco1 (configuration not stated)
inactive: dose: 12.5 mg/kg/injection, schedule: Q01DX009 (ip), vehicle: gum acacia 90 % of control | dose: 25.0 mg/kg/injection, schedule: Q01DX009 (ip), vehicle: gum acacia 88 % of control | dose: 50.0 mg/kg/injection, schedule: Q01DX009 (ip), vehicle: gum acacia 90 % of control | dose: 100.0 mg/kg/injection, schedule: Q04DX003 (ip), vehicle: gum acacia 95 % of control | dose: 200.0 mg/kg/injection, schedule: Q04DX003 (ip), vehicle: gum acacia 95 % of control | dose: 400.0 mg/kg/injection, schedule: Q04DX003 (ip), vehicle: gum acacia 107 % of control

CN(CC(=O)O)C(=O)c1ccccc1
inactive: [15] 96 % of control | [16] 96 % of control
